Test results taken from US8247211B2, “Glycopeptide antibiotics” (American Cyanamid Company, priority 2001, dated 2012).
In brackets after ≈: the same amount, converted by molar mass. Read-outs that look alike come from different tables or passages of the source.

Key:
Experiment in all cases: In vitro antibacterial evaluation: minimum inhibitory concentration (MIC), broth dilution method
Format in all cases: cell-based
Enterococcus sp. = tested on: Enterococcus sp.
Summary of the method: (§1)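 Using Muller-Hinton II […] and an inoculum of 5×10^5 CFU/mL, antibiotic dilutions from 64 down to 0.06 μg/mL were tested following NCCLS M7-A2. The MIC is the lowest concentration inhibiting growth, including in methicillin-, penicillin- or vancomycin-resistant clinical isolates.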

Staphylococcus sp. = tested on: Staphylococcus sp.
Summary of the method: as §1

Streptococcus sp. = tested on: Streptococcus sp.
Summary of the method: as §1

Escherichia coli = tested on: Escherichia coli
[1] = broth dilution, 18 hours at 35° C.

With `CC(c1ccccc1)C1NC(=O)CNC(=O)C(CO)NC(=O)C(C(O)C2CNC(=N)N2C2OC(CO)C(O)C(O)C2O)NC(=O)C(C(O)C2CNC(=N)N2)NC(=O)C(Cc2ccc3oc(-c4ccc(OCc5ccccc5)cc4)nc3c2)NC1=O` (stereo not drawn) [Example 31, Cyclo[3-[2-[4-(phenylmethoxy)phenyl]-1,3-benzoxazol-5-yl]alanyl-3-(2-iminoimidazolidin-4-yl)seryl-3-(3-hexopyranosyl-2-iminoimidazolidin-4-yl)serylserylglycyl-β-methyl-phenylalanyl]] the “MIC Enterococcus avium (GC 4558)” value (Enterococcus sp.; Enterococcus avium (GC 4558), broth dilution, 18 hours at 35° C.) was 8 µg/mL (≈ 6.79 µM), the “MIC Enterococcus faecalis (ATCC 29212)” value (Enterococcus sp.; Enterococcus faecalis (ATCC 29212), broth dilution, 18 hours at 35° C.) was 64 µg/mL (≈ 54.3 µM) and the “MIC Enterococcus faecalis (GC 2242)” value (Enterococcus sp.; Enterococcus faecalis (GC 2242), broth dilution, 18 hours at 35° C.) was 64 µg/mL (≈ 54.3 µM). The “MIC Enterococcus faecalis (GC 2691)” value (Enterococcus sp.; Enterococcus faecalis (GC 2691), broth dilution, 18 hours at 35° C.) was 64 µg/mL (≈ 54.3 µM), the “MIC Enterococcus faecalis (GC 4553)” value (Enterococcus sp.; Enterococcus faecalis (GC 4553), broth dilution, 18 hours at 35° C.) was 16 µg/mL (≈ 13.6 µM) and the “MIC Enterococcus faecalis (GC 6189)” value (Enterococcus sp.; Enterococcus faecalis (GC 6189), broth dilution, 18 hours at 35° C.) was 64 µg/mL (≈ 54.3 µM). The “MIC Enterococcus faecium (GC 2243)” value (Enterococcus sp.; Enterococcus faecium (GC 2243), broth dilution, 18 hours at 35° C.) was 32 µg/mL (≈ 27.2 µM), the “MIC Enterococcus faecium (GC 4556)” value (Enterococcus sp.; Enterococcus faecium (GC 4556), broth dilution, 18 hours at 35° C.) was 4 µg/mL (≈ 3.39 µM) and the “MIC Enterococcus faecium (GC 4557)” value (Enterococcus sp.; Enterococcus faecium (GC 4557), broth dilution, 18 hours at 35° C.) was 4 µg/mL (≈ 3.39 µM). For the same compound, the “MIC Enterococcus avium (GC 4558)” value (Enterococcus sp.; [1]) was 8 µg/mL (≈ 6.79 µM), the “MIC Enterococcus faecalis (ATCC 29212)” value (Enterococcus sp.; [1]) was 64 µg/mL (≈ 54.3 µM) and the “MIC Enterococcus faecalis (GC 2242)” value (Enterococcus sp.; [1]) was 64 µg/mL (≈ 54.3 µM). For the same compound, the “MIC Enterococcus faecalis (GC 2691)” value (Enterococcus sp.; [1]) was 64 µg/mL (≈ 54.3 µM), the “MIC Enterococcus faecalis (GC 4553)” value (Enterococcus sp.; [1]) was 16 µg/mL (≈ 13.6 µM) and the “MIC Enterococcus faecalis (GC 6189)” value (Enterococcus sp.; [1]) was 64 µg/mL (≈ 54.3 µM). For the same compound, the “MIC Enterococcus faecium (GC 2243)” value (Enterococcus sp.; [1]) was 32 µg/mL (≈ 27.2 µM), the “MIC Enterococcus faecium (GC 4556)” value (Enterococcus sp.; [1]) was 4 µg/mL (≈ 3.39 µM) and the “MIC Enterococcus faecium (GC 4557)” value (Enterococcus sp.; [1]) was 4 µg/mL (≈ 3.39 µM). For the same compound, the “MIC Coagulase Negative Staphylococcus (GC 4547)” value (Staphylococcus sp.; [1]) was 8 µg/mL (≈ 6.79 µM), the “MIC Coagulase Negative Staphylococcus (GC 4548)” value (Staphylococcus sp.; [1]) was 8 µg/mL (≈ 6.79 µM) and the “MIC Coagulase Negative Staphylococcus (GC 4549)” value (Staphylococcus sp.; [1]) was 16 µg/mL (≈ 13.6 µM). The “MIC Coagulase Negative Staphylococcus (GC 4551)” value (Staphylococcus sp.; [1]) was 16 µg/mL (≈ 13.6 µM), the “MIC Coagulase Negative Staphylococcus (GC 6257)” value (Staphylococcus sp.; [1]) was 4 µg/mL (≈ 3.39 µM) and the “MIC Staphylococcus aureus SMITH (GC 4543)” value (Staphylococcus sp.; [1]) was 16 µg/mL (≈ 13.6 µM). For the same compound, the “MIC Staphylococcus haemolyticus (GC 4546)” value (Staphylococcus sp.; [1]) was 8 µg/mL (≈ 6.79 µM), the “MIC Staphylococcus aureus-SMITH (GC 4543)” value (Staphylococcus sp.; strain SMITH GC 4543, broth dilution, 18 hours at 35° C.) was 16 µg/mL (≈ 13.6 µM) and the “MIC Streptococcus agalactiae (GC 4564)” value (Streptococcus sp.; Streptococcus agalactiae (GC 4564), broth dilution, 18 hours at 35° C.) was 32 µg/mL (≈ 27.2 µM). The “MIC Streptococcus pneumoniae (ATCC 6301)” value (Streptococcus sp.; Streptococcus pneumoniae (ATCC 6301), broth dilution, 18 hours at 35° C.) was 16 µg/mL (≈ 13.6 µM), the “MIC Streptococcus pneumoniae (GC 1894)” value (Streptococcus sp.; Streptococcus pneumoniae (GC 1894), broth dilution, 18 hours at 35° C.) was 32 µg/mL (≈ 27.2 µM) and the “MIC Streptococcus pneumoniae (GC 4565)” value (Streptococcus sp.; Streptococcus pneumoniae (GC 4565), broth dilution, 18 hours at 35° C.) was 64 µg/mL (≈ 54.3 µM). The “MIC Streptococcus pyogenes (GC 4563)” value (Streptococcus sp.; Streptococcus pyogenes (GC 4563), broth dilution, 18 hours at 35° C.) was 8 µg/mL (≈ 6.79 µM), the “MIC Streptococcus agalactiae (GC 4564)” value (Streptococcus sp.; [1]) was 32 µg/mL (≈ 27.2 µM) and the “MIC Streptococcus pneumoniae (ATCC 6301)” value (Streptococcus sp.; [1]) was 16 µg/mL (≈ 13.6 µM). For the same compound, the “MIC Streptococcus pneumoniae (GC 1894)” value (Streptococcus sp.; [1]) was 32 µg/mL (≈ 27.2 µM), the “MIC Streptococcus pneumoniae (GC 4565)” value (Streptococcus sp.; [1]) was 64 µg/mL (≈ 54.3 µM) and the “MIC Streptococcus pyogenes (GC 4563)” value (Streptococcus sp.; [1]) was 8 µg/mL (≈ 6.79 µM). For the same compound, the “MIC Escherichia coli (GC 4560)” value (Escherichia coli; [1]) was 32 µg/mL (≈ 27.2 µM).

For “Cyclo[3-[[2-(2,3,4,6-tetra-O-benzoylhexopyranosyl)amino]-1,3-benzoxazol-5-yl]alanyl-3-(2-iminoimidazolidin-4-yl)seryl-3-(3-hexopyranosyl-2-iminoimidazolidin-4-yl)seryl-serylglycyl-β-methylphenylalanyl] [Example 44]”, the “MIC Enterococcus avium (GC 4558)” value (Enterococcus sp.) was 4 µg/mL, the “MIC Enterococcus faecalis (ATCC 29212)” value (Enterococcus sp.) was 16 µg/mL and the “MIC Enterococcus faecalis (GC 2242)” value (Enterococcus sp.) was 16 µg/mL. The “MIC Enterococcus faecalis (GC 2691)” value (Enterococcus sp.) was 16 µg/mL, the “MIC Enterococcus faecalis (GC 3059)” value (Enterococcus sp.) was 32 µg/mL and the “MIC Enterococcus faecalis (GC 4552)” value (Enterococcus sp.) was 16 µg/mL. The “MIC Enterococcus faecalis (GC 4553)” value (Enterococcus sp.) was 8 µg/mL, the “MIC Enterococcus faecalis (GC 4554)” value (Enterococcus sp.) was 32 µg/mL and the “MIC Enterococcus faecalis (GC 6189)” value (Enterococcus sp.) was 16 µg/mL. The “MIC Enterococcus faecium (GC 2243)” value (Enterococcus sp.) was 8 µg/mL, the “MIC Enterococcus faecium (GC 4556)” value (Enterococcus sp.) was 32 µg/mL and the “MIC Enterococcus faecium (GC 4557)” value (Enterococcus sp.) was 8 µg/mL. For the same compound, the “MIC Coagulase Negative Staphylococcus (GC 4547)” value (Staphylococcus sp.) was 64 µg/mL, the “MIC Coagulase Negative Staphylococcus (GC 4548)” value (Staphylococcus sp.) was 8 µg/mL and the “MIC Coagulase Negative Staphylococcus (GC 4549)” value (Staphylococcus sp.) was 2 µg/mL. The “MIC Coagulase Negative Staphylococcus (GC 4551)” value (Staphylococcus sp.) was 16 µg/mL, the “MIC Coagulase Negative Staphylococcus (GC 6257)” value (Staphylococcus sp.) was 8 µg/mL and the “MIC Staphylococcus aureus (ATCC 29213)” value (Staphylococcus sp.) was 64 µg/mL. For the same compound, the “MIC Staphylococcus aureus (GC 1131)” value (Staphylococcus sp.) was 64 µg/mL, the “MIC Staphylococcus aureus (GC 3051)” value (Staphylococcus sp.) was 64 µg/mL and the “MIC Staphylococcus aureus (GC 3053)” value (Staphylococcus sp.) was 32 µg/mL. For the same compound, the “MIC Staphylococcus aureus (GC 4541)” value (Staphylococcus sp.) was 64 µg/mL, the “MIC Staphylococcus aureus (GC 4542)” value (Staphylococcus sp.) was 64 µg/mL and the “MIC Staphylococcus aureus (GC 4544)” value (Staphylococcus sp.) was 16 µg/mL. The “MIC Staphylococcus aureus (GC 4545)” value (Staphylococcus sp.) was 16 µg/mL, the “MIC Staphylococcus aureus SMITH (GC 4543)” value (Staphylococcus sp.) was 32 µg/mL and the “MIC Staphylococcus aureus-SMITH (GC 4543)” value (Staphylococcus sp.) was 32 µg/mL. The “MIC Staphylococcus haemolyticus (GC 4546)” value (Staphylococcus sp.) was 64 µg/mL, the “MIC Streptococcus agalactiae (GC 4564)” value (Streptococcus sp.) was 16 µg/mL and the “MIC Streptococcus pneumoniae (ATCC 6301)” value (Streptococcus sp.) was 8 µg/mL. For the same compound, the “MIC Streptococcus pneumoniae (GC 1894)” value (Streptococcus sp.) was 16 µg/mL, the “MIC Streptococcus pneumoniae (GC 4565)” value (Streptococcus sp.) was 32 µg/mL and the “MIC Streptococcus pyogenes (GC 4563)” value (Streptococcus sp.) was 4 µg/mL. The “MIC Escherichia coli (ATCC 25922)” value (Escherichia coli) was greater than 64 µg/mL, the “MIC Escherichia coli (GC 4559)” value (Escherichia coli) was greater than 64 µg/mL and the “MIC Escherichia coli (GC 4560)” value (Escherichia coli) was 64 µg/mL.
